The source made the active and inactive calls.
Legend:
Assay type in all cases: functional, organism-based
Escherichia coli = experiment: Antimicrobial activity against Escherichia coli by agar diffusion test
Desmodesmus subspicatus = experiment: Antimicrobial activity against Scenedesmus subspicatus by agar diffusion test
Rhizomucor miehei = experiment: Antimicrobial activity against Mucor miehei by agar diffusion test
Chlorella sorokiniana = experiment: Antimicrobial activity against Chlorella sorokiniana by agar diffusion test
Staphylococcus aureus = experiment: Antimicrobial activity against Staphylococcus aureus by agar diffusion test
[1] = tested on: Streptomyces viridochromogenes; experiment: Antimicrobial activity against Streptomyces viridochromogenes Tu57 by agar diffusion test
Candida albicans = experiment: Antimicrobial activity against Candida albicans by agar diffusion test
Chlorella vulgaris = experiment: Antimicrobial activity against Chlorella vulgaris by agar diffusion test
Bacillus subtilis = experiment: Antimicrobial activity against Bacillus subtilis by agar diffusion test

Measured: Activity

CC(=O)OCc1ccc(CO)o1
inactive: all assays above

COC(OCc1ccc(C=O)o1)c1ccc(CO)o1 (configuration not stated)
inactive: all assays above

OCc1ccc(-c2nccc3c2[nH]c2ccccc23)o1
inactive: all assays above

COC(=O)/C=C/C(=O)c1nccc2c1[nH]c1ccccc12
inactive: all assays above

O=C(O)/C=C/C(=O)c1nccc2c1[nH]c1ccccc12
inactive: all assays above

COC(OCc1ccc(C(OC)OCc2ccc(C=O)o2)o1)c1ccc(CO)o1 (configuration not stated)
inactive: all assays above

CC1=C(O)C(=O)/C(=C\c2ccc(CO)o2)O1
inactive: all assays above

CC(=O)OCc1ccc(COC(C)=O)o1
inactive: all assays above

From ChEMBL document CHEMBL1156650, “Furan oligomers and beta-carbolines from terrestrial streptomycetes” (J Nat Prod, 2008)
